Tests used:
[1] = reported by Mikhlina et al; cited from earlier work
[2] = test system: gastric emptying of a test meal; assay: Effect on Gastric Emptying of a Test Meal in Rats; type: in vivo; conditions: rat

## Nc1ccc(C(=O)NC2CN3CCC2CC3)cc1 (centres unmarked) [4-amino-N-(1-azabicyclo[2.2.2]oct-3-yl)-benzamide]
[1]
  reported activities: hypotensive, narcotic and ganglionic stimulation and blocking activities

## Cc1nc(COc2cc(N)c(Cl)cc2C(=O)N[C@H]2CN3CCC2CC3)cs1 [Example I (R)-isomer, (R)-(+)-4-Amino-N-(1-azabicyclo[2,2,2]oct-3-yl)-5-chloro-2-[(2-methyl-4-thiazolyl)methoxy]benzamide]
[2]; 9.0 mg/kg IP
  Gastric emptying: % change in meal emptied: 34%

## Nc1cc(OCc2ccccc2)c(C(=O)NC2CN3CCC2CC3)cc1Cl (centres unmarked) [Example V, 4-Amino-N-(1-azabicyclo[2.2.2]oct-3-yl)-5-chloro-2-(phenylmethoxy)benzamide]
[2]; 1.0 mg/kg IP
  Gastric emptying: % change in meal emptied: 61%

## O=C(NC1CN2CCC1CC2)c1ccccc1 (centres unmarked) [N-(1-azabicyclo[2.2.2]oct-3-yl)benzamide]
[1]
  reported activities: hypotensive, narcotic and ganglionic stimulation and blocking activities

## Cc1nc(COc2cc(N)c(Cl)cc2C(=O)NC2CN3CCC2CC3)cs1 (centres unmarked) [Example I, 4-Amino-N-(1-azabicyclo[2,2,2]oct-3-yl)-5-chloro-2-[(2-methylthiazol-4-yl)methoxy]benzamide]
[2]; 9.0 mg/kg IP
  Gastric emptying: % change in meal emptied: 36%

## Cc1nc(COc2cc(N)c(Cl)cc2C(=O)N[C@@H]2CN3CCC2CC3)cs1 [Example I (S)-isomer, S-(-)-4-Amino-N-(1-azabicyclo[2,2,2]oct-3-yl)-5-chloro-2-[(2-methyl-4-thiazolyl)methoxy]benzamide]
[2]; 9.0 mg/kg IP
  Gastric emptying: % change in meal emptied: 43%

## Nc1cc(OCc2cccc(Cl)c2)c(C(=O)NC2CN3CCC2CC3)cc1Cl (centres unmarked) [Example VI, 4-Amino-N-(1-azabicyclo[2.2.2]oct-3-yl)-5-chloro-2-[(3-chlorophenyl)methoxy]benzamide]
[2]; 1.0 mg/kg IP
  Gastric emptying: % change in meal emptied: 52%

## Nc1cc(OCc2cccc(I)c2)c(C(=O)NC2CN3CCC2CC3)cc1Cl (centres unmarked) [Example VII, 4-Amino-N-(1-azabicyclo[2.2.2]oct-3-yl)-5-chloro-2-[(3-iodophenyl)methoxy]benzamide]
[2]; 0.10 mg/kg IP
  Gastric emptying: % change in meal emptied: 28%

Reference: patent publication US5236931A, “2-substituted benzamide and benzoate derivatives of 3-aminoquinuclidine and 3-quinuclidinol” (priority 1992, dated 1993)
